This assay deals with wheat powdery mildew (Erysiphe graminis). Nature of the assay: Reference Example: efficacy reinforcement by adjuvant, control of wheat powdery mildew on potted wheat. Format: in vivo. The conditions noted are these: pyribencarb water-dispersible granules 30 g/ha, no adjuvant added (0 ppm); day 7 after inoculation. How it is done: Pyribencarb (40 parts), sodium lignin sulfonate (5 parts), polyoxyethylene alkyl aryl ether (1 part), calcium carbonate (54 parts) and water (10 parts) were mixed, kneaded, extruded, and granulated, and the resultant granules were dried in a fluidized bed dryer to obtain water-dispersible granules. Thus obtained water-dispersible granules of pyribencarb were adjusted so as to have a predetermined concentration, and the adjuvant shown in the following Table 2 was added to the diluted solution to a concentration of 100 ppm to prepare a spray solution. In addition, a spray solution containing an adjuvant at a concentration of 100 ppm without containing water-dispersible granules of pyribencarb were separately prepared. Ten wheat seeds (variety: Norin No. 61) were sowed in a plastic cup having a diameter of 5.5 cm, and after grown for 7 days in a greenhouse, 25 ml/m^2 (30 g of pyribencarb per 1 ha) was sprayed onto the wheat at 1.5 to 2 leaf stage. After air-drying, conidia of wheat powdery mildew (Erysiphe graminis) were sprayed and inoculated, and the plant was placed in a greenhouse. On day 7 after inoculation, the disease onset area of the first leaves in the pot in the spray solution-treated region and the untreated region were indexed and investigated according to the criteria in Table 1 below. […]

Regarding `COC(=O)NCc1cc(/C(C)=N/OCc2cccc(C)n2)ccc1Cl` [pyribencarb, methyl={2-chloro-5-[(E)-1-(6-methyl-2-pyridylmethoxyimino)ethyl]benzyl}carbamate], the “Control effect on wheat powdery mildew (control value)” value amounted to 33.2%.

(Values after patent US10701939B2, “Aqueous suspension agrochemical composition” (KUMIAI CHEMICAL INDUSTRY CO., LTD., priority 2015, dated 2020).)
